Test system: HOP-62 complex spheroids with HUVEC/MSC, viability
Test: Anticancer human tumor HOP-62 cell line growth inhibition [RAS];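 further: spheroids exposed to agents for seven days before readout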;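 on viability, T/C: 100% = DMSO vehicle control viability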
Details: for IC50: curve of first compound; for viability, T/C: stronger effect = lower value
In short: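 Agents were tested in combination matrices in half-log decrements from a top concentration at or near clinical Cmax (10 microM if undetermined). Targets were multi-cell spheroids of tumour lines plus HUVEC and MSC stromal cells.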

[1] = second compound 0.000949 µM, first compound 0.00316 µM
[2] = second compound 0.000949 µM, first compound 0.01 µM
[3] = second compound 0.000949 µM, first compound 0.0316 µM
[4] = second compound 0.000949 µM, first compound 0.1 µM
[5] = second compound 0.000949 µM, first compound 0.316 µM
[6] = second compound 0.000949 µM, first compound 1 µM
[7] = second compound 0.003 µM, first compound 0.00316 µM
[8] = second compound 0.003 µM, first compound 0.01 µM
[9] = second compound 0.003 µM, first compound 0.0316 µM
[10] = second compound 0.003 µM, first compound 0.1 µM
[11] = second compound 0.003 µM, first compound 0.316 µM
[12] = second compound 0.003 µM, first compound 1 µM
[13] = second compound 0.00949 µM, first compound 0.00316 µM
[14] = second compound 0.00949 µM, first compound 0.01 µM
[15] = second compound 0.00949 µM, first compound 0.0316 µM
[16] = second compound 0.00949 µM, first compound 0.1 µM
[17] = second compound 0.00949 µM, first compound 0.316 µM
[18] = second compound 0.00949 µM, first compound 1 µM
[19] = second compound 0.03 µM, first compound 0.00316 µM
[20] = second compound 0.03 µM, first compound 0.01 µM
[21] = second compound 0.03 µM, first compound 0.0316 µM
[22] = second compound 0.03 µM, first compound 0.1 µM
[23] = second compound 0.03 µM, first compound 0.316 µM
[24] = second compound 0.03 µM, first compound 1 µM
[25] = second compound 0.0949 µM, first compound 0.00316 µM
[26] = second compound 0.0949 µM, first compound 0.01 µM
[27] = second compound 0.0949 µM, first compound 0.0316 µM
[28] = second compound 0.0949 µM, first compound 0.1 µM
[29] = second compound 0.0949 µM, first compound 0.316 µM
[30] = second compound 0.0949 µM, first compound 1 µM
[31] = second compound 0.3 µM, first compound 0.00316 µM
[32] = second compound 0.3 µM, first compound 0.01 µM
[33] = second compound 0.3 µM, first compound 0.0316 µM
[34] = second compound 0.3 µM, first compound 0.1 µM
[35] = second compound 0.3 µM, first compound 0.316 µM
[36] = second compound 0.3 µM, first compound 1 µM

For `CCN1CCN(Cc2ccc(Nc3ncc(F)c(-c4cc(F)c5nc(C)n(C(C)C)c5c4)n3)nc2)CC1` + CCn1c(-c2cccnc2C(C)OC)c2c3cc(ccc31)N1CCOC(CC(NC(=O)C(C(C)C)N(C)C(=O)C3(F)CCN(C(=O)C#CC(C)(C)N(C)C)CC3)C(=O)N3CCCC(N3)C(=O)OCC(C)(C)C2)C1, the IC50 (second compound 0.000949 µM) was > 1000 nM, the IC50 (second compound 0.003 µM) was > 1000 nM and the IC50 (second compound 0.00949 µM) was > 1000 nM. For the same compound, the IC50 (second compound 0.03 µM) was > 1000 nM, the IC50 (second compound 0.0949 µM) was > 1000 nM and the IC50 (second compound 0.3 µM) was > 1000 nM. The viability, T/C [1] was 106%, the viability, T/C [2] was 116% and the viability, T/C [3] was 86.5%. It also gave a viability, T/C [4] of 108%, a viability, T/C [5] of 107% and a viability, T/C [6] of 92.3%. For the same compound, the viability, T/C [7] was 102%, the viability, T/C [8] was 99.7% and the viability, T/C [9] was 68.9%. The viability, T/C [10] was 97%, the viability, T/C [11] was 97.5% and the viability, T/C [12] was 76.8%. The viability, T/C [13] was 100%, the viability, T/C [14] was 81.7% and the viability, T/C [15] was 84.2%. It also gave a viability, T/C [16] of 87.9%, a viability, T/C [17] of 88.6% and a viability, T/C [18] of 79.2%. It also gave a viability, T/C [19] of 96.6%, a viability, T/C [20] of 86.7% and a viability, T/C [21] of 82.8%. For the same compound, the viability, T/C [22] was 85.3%, the viability, T/C [23] was 78.6% and the viability, T/C [24] was 89.5%. The viability, T/C [25] was 87.8%, the viability, T/C [26] was 97.7% and the viability, T/C [27] was 79.7%. For the same compound, the viability, T/C [28] was 74.4%, the viability, T/C [29] was 68.3% and the viability, T/C [30] was 97.4%. The viability, T/C [31] was 90.2%, the viability, T/C [32] was 78.9% and the viability, T/C [33] was 79.7%. The viability, T/C [34] was 70.2%, the viability, T/C [35] was 74.3% and the viability, T/C [36] was 91.4%.

With `Nc1ccn(C2OC(CO)C(O)C2(F)F)c(=O)n1` (centres undefined) + CCn1c(-c2cc(N3CCN(C)CC3)cnc2C(C)OC)c2c3cc(ccc31)-c1csc(n1)CC(NC(=O)C1CC1C)C(=O)N1CCCC(N1)C(=O)OCC(C)(C)C2 the IC50 (second compound 0.000949 µM) was 15.7 nM, the IC50 (second compound 0.003 µM) was 12.9 nM and the IC50 (second compound 0.00949 µM) was 12 nM. The IC50 (second compound 0.03 µM) was 10.6 nM, the IC50 (second compound 0.0949 µM) was < 3.16 nM and the IC50 (second compound 0.3 µM) was < 3.16 nM. The viability, T/C [1] was 121%, the viability, T/C [2] was 71.2% and the viability, T/C [3] was 16.9%. The viability, T/C [4] was 12.5%, the viability, T/C [5] was 9.82% and the viability, T/C [6] was 5.86%. For the same compound, the viability, T/C [7] was 93.9%, the viability, T/C [8] was 56% and the viability, T/C [9] was 29.5%. The viability, T/C [10] was 19.4%, the viability, T/C [11] was 14.9% and the viability, T/C [12] was 8.45%. The viability, T/C [13] was 68.1%, the viability, T/C [14] was 52.5% and the viability, T/C [15] was 36.2%. The viability, T/C [16] was 26.6%, the viability, T/C [17] was 17.5% and the viability, T/C [18] was 17.3%. It also gave a viability, T/C [19] of 60.4%, a viability, T/C [20] of 49.2% and a viability, T/C [21] of 40.3%. It also gave a viability, T/C [22] of 31%, a viability, T/C [23] of 20.8% and a viability, T/C [24] of 25.1%. It also gave a viability, T/C [25] of 45.6%, a viability, T/C [26] of 38.4% and a viability, T/C [27] of 35.6%. For the same compound, the viability, T/C [28] was 28.9%, the viability, T/C [29] was 23.9% and the viability, T/C [30] was 27.4%. The viability, T/C [31] was 43.5%, the viability, T/C [32] was 38.8% and the viability, T/C [33] was 39.7%. For the same compound, the viability, T/C [34] was 25.9%, the viability, T/C [35] was 25.9% and the viability, T/C [36] was 31.7%.
